6 compounds from article PMC6467542 (Bioorganic & Medicinal Chemistry, 2019) can be followed below.

In brackets after ≈: the same amount, converted by molar mass.

Sequence of hERG potassium channel (Q12809 whole entry): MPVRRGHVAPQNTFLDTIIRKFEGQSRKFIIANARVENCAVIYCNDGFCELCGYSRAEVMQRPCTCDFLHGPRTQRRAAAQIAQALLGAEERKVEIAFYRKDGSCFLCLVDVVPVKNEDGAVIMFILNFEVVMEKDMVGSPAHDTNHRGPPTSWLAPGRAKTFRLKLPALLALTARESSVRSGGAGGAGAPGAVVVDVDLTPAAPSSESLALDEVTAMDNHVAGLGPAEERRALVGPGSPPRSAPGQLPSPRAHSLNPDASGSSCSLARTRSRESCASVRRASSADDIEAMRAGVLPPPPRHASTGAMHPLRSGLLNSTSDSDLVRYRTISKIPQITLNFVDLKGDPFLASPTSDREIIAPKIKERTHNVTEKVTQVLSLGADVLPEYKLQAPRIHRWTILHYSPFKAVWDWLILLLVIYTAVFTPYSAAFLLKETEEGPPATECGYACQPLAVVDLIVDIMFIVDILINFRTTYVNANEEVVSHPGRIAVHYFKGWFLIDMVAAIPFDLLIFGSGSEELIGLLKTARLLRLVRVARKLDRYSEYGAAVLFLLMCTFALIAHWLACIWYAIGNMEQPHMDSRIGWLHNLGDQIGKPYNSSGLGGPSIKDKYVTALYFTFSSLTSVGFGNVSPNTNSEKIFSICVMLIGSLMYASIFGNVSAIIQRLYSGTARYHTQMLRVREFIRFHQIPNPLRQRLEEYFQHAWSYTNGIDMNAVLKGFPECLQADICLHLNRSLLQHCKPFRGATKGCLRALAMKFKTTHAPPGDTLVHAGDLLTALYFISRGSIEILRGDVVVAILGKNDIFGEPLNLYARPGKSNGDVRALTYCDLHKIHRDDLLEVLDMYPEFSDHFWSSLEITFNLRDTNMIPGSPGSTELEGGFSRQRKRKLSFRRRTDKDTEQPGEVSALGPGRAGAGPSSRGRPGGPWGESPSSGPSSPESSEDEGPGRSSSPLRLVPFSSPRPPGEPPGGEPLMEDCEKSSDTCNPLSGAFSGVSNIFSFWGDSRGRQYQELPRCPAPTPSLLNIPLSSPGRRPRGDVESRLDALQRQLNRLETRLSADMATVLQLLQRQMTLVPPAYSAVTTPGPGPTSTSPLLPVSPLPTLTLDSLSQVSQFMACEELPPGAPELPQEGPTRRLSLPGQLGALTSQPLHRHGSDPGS

The first data set deals with M. tb (strain H37Rv). The data set is described as follows: MIC90 against replicating M.tb (MABA). The class given is cell-based, Mycobacterium tuberculosis. The following applies: Mycobacterium tuberculosis, aerobic (replicating) conditions, 90% inhibition of growth.
On to `COc1nc2ccc(C#N)cc2cc1C(c1cccc(C)c1)C(O)(CCN(C)C)c1cccnc1OC` (stereo not shown) [Compound 40], for which the MIC90 (usually the lowest concentration that inhibits either 90% of growth or 90% of the strains tested, depending on the study) turned out to be 0.52 µg/mL (≈ 1.05 µM).
As for `COc1nc2ccc(Br)cc2cc1C(c1cccc2c1OCO2)C(O)(CCN(C)C)c1cccnc1OC` (stereo not shown) [Compound 41], the MIC90 was found to be 0.66 µg/mL (≈ 1.14 µM).
The same measure, in the same setting: to `COc1cc(C(O)(CCN(C)C)C(c2cc3cc(Br)ccc3nc2OC)c2ccnc(OC)c2OC)cnc1OC` (stereo not shown) [Compound 48] belongs 0.06 µg/mL (≈ 0.0956 µM); to `COc1cc(C(O)(CCN(C)C)C(c2cc3cc(Br)ccc3nc2OC)c2ccnc(OC)c2OC)c(OC)nc1OC` (stereo not shown) [Compound 49], 0.57 µg/mL (≈ 0.867 µM); to `COc1cccc(C(c2cc3cc(C#N)ccc3nc2OC)C(O)(CCN(C)C)c2cc(C)nc(C)c2)c1F` (stereo not shown) [Compound 55], 0.6 µg/mL (≈ 1.14 µM).
On the same count and under the same terms, to `CCOc1cc(C(O)(CCN(C)C)C(c2cc(OC)nc(OC)c2)c2cc3cc(Br)ccc3nc2OC)cc(OC(C)C)n1` (stereo not shown) [Compound 62] belongs less than 0.02 µg/mL.

In a further data set the test system is M. tb (strain H37Rv). The data set is described as follows: MIC90 against non-replicating M.tb (LORA). The class given is cell-based, Mycobacterium tuberculosis. The following applies: Mycobacterium tuberculosis, H37RV, read-out: MIC90 LORA. As to the method: In these assays, 1 is a potent inhibitor, with MICs of 0.08 and 0.12 µg/mL, respectively. Replacement of the naphthalene C-unit of 1 with various pyridyls produced analogues of considerably lower lipophilicity, with clogP values ranging from 6.89 down to 2.98.
Turning to `COc1nc2ccc(C#N)cc2cc1C(c1cccc(C)c1)C(O)(CCN(C)C)c1cccnc1OC` (stereo not shown) [Compound 40], the MIC90 is 0.76 µg/mL (≈ 1.53 µM).
On the same count and under the same terms, to `COc1nc2ccc(Br)cc2cc1C(c1cccc2c1OCO2)C(O)(CCN(C)C)c1cccnc1OC` (stereo not shown) [Compound 41] belongs 1.1 µg/mL (≈ 1.89 µM); to `COc1cc(C(O)(CCN(C)C)C(c2cc3cc(Br)ccc3nc2OC)c2ccnc(OC)c2OC)cnc1OC` (stereo not shown) [Compound 48], 0.45 µg/mL (≈ 0.717 µM); to `COc1cc(C(O)(CCN(C)C)C(c2cc3cc(Br)ccc3nc2OC)c2ccnc(OC)c2OC)c(OC)nc1OC` (stereo not shown) [Compound 49], 1.4 µg/mL (≈ 2.13 µM).
Same read-out and setting: to `COc1cccc(C(c2cc3cc(C#N)ccc3nc2OC)C(O)(CCN(C)C)c2cc(C)nc(C)c2)c1F` (stereo not shown) [Compound 55] belongs 0.91 µg/mL (≈ 1.72 µM).

The next data set relates to M.tb. Kind of data set: Efficacy in a mouse model of TB (lung CFU reduction). Format: in vivo. As to conditions: Mycobacterium tuberculosis, inhaled or nasal, 288 h; read-out: Log reduction in colony-forming units (CFU), new compound.
As to `COc1nc2ccc(C#N)cc2cc1C(c1cccc(C)c1)C(O)(CCN(C)C)c1cccnc1OC` (stereo not shown) [Compound 40], the log reduction at 20 mg/kg was determined as 0.5.
On the same count and under the same terms, to `COc1nc2ccc(Br)cc2cc1C(c1cccc2c1OCO2)C(O)(CCN(C)C)c1cccnc1OC` (stereo not shown) [Compound 41] belongs 0.3; to `COc1cc(C(O)(CCN(C)C)C(c2cc3cc(Br)ccc3nc2OC)c2ccnc(OC)c2OC)cnc1OC` (stereo not shown) [Compound 48], 0.9; to `CCOc1cc(C(O)(CCN(C)C)C(c2cc(OC)nc(OC)c2)c2cc3cc(Br)ccc3nc2OC)cc(OC(C)C)n1` (stereo not shown) [Compound 62], 4.5.

Test system in another data set: not given
Assay: not given
The following applies: mouse, in vivo.
On to `COc1nc2ccc(C#N)cc2cc1C(c1cccc(C)c1)C(O)(CCN(C)C)c1cccnc1OC` (stereo not shown) [Compound 40], for which the “AUC: exposure, AUCinf” value is 1170 ng·h/mL.
On the same count and under the same terms, to `COc1nc2ccc(Br)cc2cc1C(c1cccc2c1OCO2)C(O)(CCN(C)C)c1cccnc1OC` (stereo not shown) [Compound 41] belongs 3780 ng·h/mL.
On to `COc1cc(C(O)(CCN(C)C)C(c2cc3cc(Br)ccc3nc2OC)c2ccnc(OC)c2OC)cnc1OC` (stereo not shown) [Compound 48], for which the “AUC: exposure, AUCinf” value was determined as 4280 ng·h/mL.
The same measure, in the same setting: to `COc1cc(C(O)(CCN(C)C)C(c2cc3cc(Br)ccc3nc2OC)c2ccnc(OC)c2OC)c(OC)nc1OC` (stereo not shown) [Compound 49] belongs 9130 ng·h/mL.
The same measure, in the same setting: to `COc1cccc(C(c2cc3cc(C#N)ccc3nc2OC)C(O)(CCN(C)C)c2cc(C)nc(C)c2)c1F` (stereo not shown) [Compound 55] belongs 350 ng·h/mL; to `CCOc1cc(C(O)(CCN(C)C)C(c2cc(OC)nc(OC)c2)c2cc3cc(Br)ccc3nc2OC)cc(OC(C)C)n1` (stereo not shown) [Compound 62], 33000 ng·h/mL.

Still in this data set, the particulars now being: mouse, in vivo, iv.
In the case of `COc1nc2ccc(C#N)cc2cc1C(c1cccc(C)c1)C(O)(CCN(C)C)c1cccnc1OC` (stereo not shown) [Compound 40], the “IV Cl: IV clearance” value stood at 48 mL/min/kg and the “Vz: IV apparent volume of distribution during terminal phase” value (shortened to “Vz: IV apparent volume”) is 6.6 L/kg.
In the same order, the values of `COc1nc2ccc(Br)cc2cc1C(c1cccc2c1OCO2)C(O)(CCN(C)C)c1cccnc1OC` (stereo not shown) [Compound 41] are 27 mL/min/kg and 20 L/kg.
For `COc1cc(C(O)(CCN(C)C)C(c2cc3cc(Br)ccc3nc2OC)c2ccnc(OC)c2OC)cnc1OC` (stereo not shown) [Compound 48], in that order: 19 mL/min/kg and 6.0 L/kg.
For the compound `COc1cc(C(O)(CCN(C)C)C(c2cc3cc(Br)ccc3nc2OC)c2ccnc(OC)c2OC)c(OC)nc1OC` (stereo not shown) [Compound 49], the “IV Cl: IV clearance” value turned out to be 10 mL/min/kg and the “Vz: IV apparent volume” value stood at 12 L/kg.
For the compound `COc1cccc(C(c2cc3cc(C#N)ccc3nc2OC)C(O)(CCN(C)C)c2cc(C)nc(C)c2)c1F` (stereo not shown) [Compound 55], the “IV Cl: IV clearance” value is listed as 130 mL/min/kg and the “Vz: IV apparent volume” value came out at 53 L/kg.
For `CCOc1cc(C(O)(CCN(C)C)C(c2cc(OC)nc(OC)c2)c2cc3cc(Br)ccc3nc2OC)cc(OC(C)C)n1` (stereo not shown) [Compound 62], in that order: 3 mL/min/kg and 20 L/kg.

The same data set, now with this note: mouse, in vivo, po.
Regarding `COc1nc2ccc(C#N)cc2cc1C(c1cccc(C)c1)C(O)(CCN(C)C)c1cccnc1OC` (stereo not shown) [Compound 40], the “F: oral bioavailability” value is 33%.
As for `COc1nc2ccc(Br)cc2cc1C(c1cccc2c1OCO2)C(O)(CCN(C)C)c1cccnc1OC` (stereo not shown) [Compound 41], the “F: oral bioavailability” value is reported as 46%.
On the same count and under the same terms, to `COc1cc(C(O)(CCN(C)C)C(c2cc3cc(Br)ccc3nc2OC)c2ccnc(OC)c2OC)cnc1OC` (stereo not shown) [Compound 48] belongs 48%; to `COc1cc(C(O)(CCN(C)C)C(c2cc3cc(Br)ccc3nc2OC)c2ccnc(OC)c2OC)c(OC)nc1OC` (stereo not shown) [Compound 49], 52%; to `COc1cccc(C(c2cc3cc(C#N)ccc3nc2OC)C(O)(CCN(C)C)c2cc(C)nc(C)c2)c1F` (stereo not shown) [Compound 55], 25%.
Same read-out and setting: to `CCOc1cc(C(O)(CCN(C)C)C(c2cc(OC)nc(OC)c2)c2cc3cc(Br)ccc3nc2OC)cc(OC(C)C)n1` (stereo not shown) [Compound 62] belongs 58%.

Test system in another data set: not listed separately
The data set is described as follows: in vivo. The following applies: mouse, iv.
For `COc1cccc(C(c2cc3cc(C#N)ccc3nc2OC)C(O)(CCN(C)C)c2cc(C)nc(C)c2)c1F` (stereo not shown) [Compound 55], the clearance (usually a measure of how efficiently the substance is removed, as volume per time) was greater than 50 mL/min/kg.

Test system in the next data set: not listed separately
Kind of data set: in vitro. The following applies: human, microsomes.
Regarding `COc1nc2ccc(C#N)cc2cc1C(c1cccc(C)c1)C(O)(CCN(C)C)c1cccnc1OC` (stereo not shown) [Compound 40], the microsomal CLint (in general, a measure of how fast metabolising enzymes remove a compound, apart from limits set by blood flow) amounted to 11 µL/min/mg.
On the same count and under the same terms, to `COc1nc2ccc(Br)cc2cc1C(c1cccc2c1OCO2)C(O)(CCN(C)C)c1cccnc1OC` (stereo not shown) [Compound 41] belongs 36 µL/min/mg.
Same read-out and setting: to `COc1cc(C(O)(CCN(C)C)C(c2cc3cc(Br)ccc3nc2OC)c2ccnc(OC)c2OC)cnc1OC` (stereo not shown) [Compound 48] belongs 5 µL/min/mg.
The same measure, in the same setting: to `COc1cc(C(O)(CCN(C)C)C(c2cc3cc(Br)ccc3nc2OC)c2ccnc(OC)c2OC)c(OC)nc1OC` (stereo not shown) [Compound 49] belongs 5 µL/min/mg; to `COc1cccc(C(c2cc3cc(C#N)ccc3nc2OC)C(O)(CCN(C)C)c2cc(C)nc(C)c2)c1F` (stereo not shown) [Compound 55], 12 µL/min/mg.
In the case of `CCOc1cc(C(O)(CCN(C)C)C(c2cc(OC)nc(OC)c2)c2cc3cc(Br)ccc3nc2OC)cc(OC(C)C)n1` (stereo not shown) [Compound 62], the microsomal CLint came to 1 µL/min/mg.

Test system in the next data set: not listed separately
The data set is described as follows: in vitro. As to conditions: mouse, microsomes.
`COc1nc2ccc(C#N)cc2cc1C(c1cccc(C)c1)C(O)(CCN(C)C)c1cccnc1OC` (stereo not shown) [Compound 40] returned a microsomal CLint of 53 µL/min/mg.
Still for that read-out and setting: to `COc1nc2ccc(Br)cc2cc1C(c1cccc2c1OCO2)C(O)(CCN(C)C)c1cccnc1OC` (stereo not shown) [Compound 41] belongs 19 µL/min/mg.
Still for that read-out and setting: to `COc1cc(C(O)(CCN(C)C)C(c2cc3cc(Br)ccc3nc2OC)c2ccnc(OC)c2OC)cnc1OC` (stereo not shown) [Compound 48] belongs 59 µL/min/mg; to `COc1cc(C(O)(CCN(C)C)C(c2cc3cc(Br)ccc3nc2OC)c2ccnc(OC)c2OC)c(OC)nc1OC` (stereo not shown) [Compound 49], 7 µL/min/mg; to `COc1cccc(C(c2cc3cc(C#N)ccc3nc2OC)C(O)(CCN(C)C)c2cc(C)nc(C)c2)c1F` (stereo not shown) [Compound 55], 51 µL/min/mg.
Still for that read-out and setting: to `CCOc1cc(C(O)(CCN(C)C)C(c2cc(OC)nc(OC)c2)c2cc3cc(Br)ccc3nc2OC)cc(OC(C)C)n1` (stereo not shown) [Compound 62] belongs 2.3 µL/min/mg.

Another data set concerns the target hERG potassium channel (Homo sapiens, UniProt Q12809). The data set is described as follows: Inhibition of hERG potassium current (patch clamp electrophysiology). The following applies: 3 µM; manual or (less accurate) QPatch assay. For orientation: Block of hERG is tested as a sign of cardiac risk.
For `COc1nc2ccc(Br)cc2cc1C(c1cccc2c1OCO2)C(O)(CCN(C)C)c1cccnc1OC` (stereo not shown) [Compound 41], the “hERG % inhibition at 3 µM” value is 26%/3.
Consider `COc1cccc(C(c2cc3cc(C#N)ccc3nc2OC)C(O)(CCN(C)C)c2cc(C)nc(C)c2)c1F` (stereo not shown) [Compound 55], for which the “hERG % inhibition at 3 µM” value is recorded as 37%/3.

The same data set, now with this note: read-out: hERG IC50; manual patch clamp, 5-concentration dose-response.
For the compound `COc1nc2ccc(C#N)cc2cc1C(c1cccc(C)c1)C(O)(CCN(C)C)c1cccnc1OC` (stereo not shown) [Compound 40], the IC50 (as a rule, the concentration that gives 50% inhibition) is 300 nM.
In the case of `COc1cc(C(O)(CCN(C)C)C(c2cc3cc(Br)ccc3nc2OC)c2ccnc(OC)c2OC)cnc1OC` (stereo not shown) [Compound 48], the IC50 is 3600 nM.
As for `COc1cc(C(O)(CCN(C)C)C(c2cc3cc(Br)ccc3nc2OC)c2ccnc(OC)c2OC)c(OC)nc1OC` (stereo not shown) [Compound 49], the IC50 came to 2700 nM.
Same read-out and setting: to `CCOc1cc(C(O)(CCN(C)C)C(c2cc(OC)nc(OC)c2)c2cc3cc(Br)ccc3nc2OC)cc(OC(C)C)n1` (stereo not shown) [Compound 62] belongs greater than 10000 nM.
